Experimental data reported in article PMC7551886, “Antitumour Effects of Astaxanthin and Adonixanthin on Glioblastoma” (Marine Drugs, 2020).

Legend:
[1] = ICR, mouse, in vivo, po
Description: (§1) In the experiment of the murine orthotopic glioblastoma model, oral administration of each astaxanthin (10 and 30 mg/kg) and adonixanthin (10 and 30 mg/kg) was initiated 3 days after intracranial injection of GL261 cells and was continued for 10 days. In the experiment of the brain tissue absorption with oral astaxanthin or adonixanthin, after one week of adaptation, ICR mice were randomly divided into the following three groups: control group, astaxanthin group (50 mg/kg), and adonixanthin group (50 mg/kg). Mice were orally administered each reagent suspended in olive oil (5 mL/kg) by the daily single dose for 10 days. The control group was treated by olive oil alone (5 mL/kg).
In mice, blood samples were collected under anaesthesia by using sodium pentobarbital (50 mg/kg, 10 mL/kg, i.p). To separate serum and from blood, we centrifuged at 1700 g for 10 min. […]
Carotenoid fraction was collected from blood and some tissues by silica gel HPLC using a Cosmosil 5SL-II column with acetone:hexane (2:8, v/v) for the mobile phase at a flow rate of 1.0 mL/min as described above. […] Identification of each carotenoid was performed by authentic carotenoids obtained from Paracoccus (ENEOS Corporation, Tokyo, Japan) by our routine methods and the content of each carotenoid was calculated from peak areas by comparison with the authentic samples.

[2] = Body weight of mice during administration; format: in vivo, mouse
Description: as §1

hippocampal inflammation = system: hippocampal inflammation; parameters: method as in PMID 28017669; conditions: diabetic mice, oral 25 mg/kg ref 45; cited from earlier work
[3] = known; no reference given; cited from earlier work
Fibronectin mRNA = test: qRT-PCR of Fibronectin mRNA in GL261; format: cell-based, mouse; conditions: GL261, 10 µM, 48 h
Description: To evaluate the effect of astaxanthin and adonixanthin on the expression of Fibronectin mRNA expression, we performed quantitative real-time reverse transcription polymerase chain reaction (qRT-PCR) analysis. GL261 cell was seeded at 2.5 × 10^4 cells well in 24-well plates with culture medium supplemented with 10% FBS. After 24 h of incubation, the medium was changed to DMEM containing 10% FBS and 0.1% DMSO PBS, 300 μM temozolomide, 10 µM astaxanthin, or 10 µM adonixanthin was added for 48 h. After 48 h of treatment, RNA was isolated from GL261 cells using Nucleo Spin RNA II (Takara, Shiga, Japan). RNA concentrations were determined using NanoVue Plus (GE Healthcare Japan, Tokyo, Japan). Single-strand cDNAs were synthesized from the isolated RNAs via reverse transcription with a PrimeScript RT Reagent Kit (Perfect Real Time; Takara). Quantitative real-time RT-PCR was performed using TB Green Premix Ex Taq II (Tli RNaseH Plus; Takara) and a TP800 Thermal Cycler Dice Real Time System (Takara). All procedures were carried out in accordance with the manufacturer’s instructions. […] The results are expressed as relative gene expression levels normalized to that of β-actin.

fibronectin = test: Immunoblotting, fibronectin expression in GL261; format: cell-based, mouse; conditions: GL261, 10 µM, 48 h
Description: GL261 cell was seeded at 2.5 × 10^4 cells per well in 24-well plates with culture medium supplemented with 10% FBS. After 24 h of incubation, the medium was changed to DMEM containing 10% FBS and 0.1%DMSO PBS, 300 μM temozolomide, 10 μM astaxanthin, or 10 μM adonixanthin was added for 6 and 48 h. Cells were lysed in a special buffer (RIPA buffer R0278; Sigma-Aldrich, St. Louis, MO, USA) with a protease inhibitor cocktail (Sigma-Aldrich), phosphatase inhibitor cocktails 2 and 3 (Sigma-Aldrich), and sample buffer (Wako, Osaka, Japan). The protein concentration was determined by comparison with a known concentration of bovine serum albumin using the BCA Protein Assay Kit (Thermo Fisher Scientific). The amount of total protein was 2 μg. […] The band intensity was […] using an Immuno Star LD (Wako). Band intensity was measured using an LAS-4000 UV mini Luminescent Image Analyzer (Fujifilm, Tokyo Japan) and Multi Gauge Version 3.0 (Fujifilm). The phosphorylation of ERK1/2, Akt, and p38 MAPK was measured by normalizing against total ERK1/2, total Akt, and total p38 MAPK. […]

Row | concentration detected in the brain [1] | SMILES | changes in body weight ([2]; 10 days of administration) | body weight of treated mice ([2]; after 10 days of administration, vehicle 34.72 ± 2.05 g) [g] | hippocampal inflammation (hippocampal inflammation) | dose that does not show adverse effects even with long-term administration [3] [mg/kg] | mRNA level of fibronectin (Fibronectin mRNA) | expression of fibronectin (fibronectin)
1 | approximately 30 nM | CC1=C(/C=C/C(C)=C/C=C/C(C)=C/C=C/C=C(C)/C=C/C=C(C)/C=C/C2=C(C)C(=O)[C@@H](O)CC2(C)C)C(C)(C)C[C@H](O)C1=O [Astaxanthin, astaxanthin] | No significant changes | 35.50 ± 1.95 | inhibited hippocampal inflammation | 50 | decreased | 
2 | ~10 nM | CC1=C(/C=C/C(C)=C/C=C/C(C)=C/C=C/C=C(C)/C=C/C=C(C)/C=C/C2=C(C)C(=O)[C@@H](O)CC2(C)C)C(C)(C)C[C@H](O)C1 [Adonixanthin, adonixanthin] |  |  |  |  | decreased | decreased
